Test results reported in patent US20230150953A1, “SUBSTITUTED ISOPHTHALIC ACID DIAMIDES” (Bayer Aktiengesellschaft, priority 2020, published 2023).

How the values were obtained:
Assay type in all cases: in vivo
[1] = system: ECHCG Echinochloa crus-galli; experiment: Pre-emergence herbicidal action against harmful plants; settings: scored visually after 3 weeks vs untreated controls
Text: (§1) The abbreviations used for the harmful plants mean: • ABUTH Abutilon theophrasti ALOMY Alopecurus myosuroides • AVEFA Avena fatua AMARE Amaranthus retroflexus • CYPES Cyperus esculentus DIGSA Digitaria sanguinalis • ECHCG Echinochloa crus-galli HORMU Hordeum murinum • LOLMU Lolium multiflorum LOLRI Lolium rigidum • MATIN Matricaria inodora PHBPU Pharbitis purpurea • POLCO Polygonum convolvulus SETVI Setaria viridis • STEME Stellaria media VERPE Veronica persica • VIOTR Viola tricolor 1. Pre-Emergence Herbicidal Action Against Harmful Plants Seeds of monocotyledonous and dicotyledonous weed plants and crop plants are laid out in sandy loam soil in wood-fiber pots and covered with soil. The compounds of the invention, formulated in the form of wettable powders (WP) or as emulsion concentrates (EC), are then applied to the surface of the covering soil in the form of an aqueous suspension or emulsion at a water application rate equivalent to 600 to 800 l/ha, with addition of 0.2% wetting agent. After the treatment, the pots are placed in a greenhouse and kept under good growth conditions for the trial plants. The damage to the test plants is scored visually after a test period of 3 weeks by comparison with untreated controls (herbicidal activity in percent (%): 100% activity=the plants have died, 0% activity=like control plants). […] The tables below illustrate, in an illustrative manner, the post-emergence herbicidal action of the compounds of the invention, the herbicidal activity being stated in percent.

[2] = system: MATIN Matricaria inodora; experiment: as above; settings: scored visually after 3 weeks vs untreated controls
Text: as §1

[3] = system: PHBPU Pharbitis purpurea; experiment: as above; settings: 80 g/ha, scored visually after 3 weeks vs untreated controls
Text: as §1

[4] = system: SETVI Setaria viridis; experiment: as above; settings: 80 g/ha, scored visually after 3 weeks vs untreated controls
Text: as §1

[5] = system: POLCO Polygonum convolvulus; experiment: as above; settings: 80 g/ha, scored visually after 3 weeks vs untreated controls
Text: as §1

[6] = system: ALOMY Alopecurus myosuroides; experiment: as above; settings: 80 g/ha, scored visually after 3 weeks vs untreated controls
Text: as §1

[7] = system: AMARE Amaranthus retroflexus; experiment: as above; settings: scored visually after 3 weeks vs untreated controls
Text: as §1

[8] = system: DIGSA Digitaria sanguinalis; experiment: as above; settings: scored visually after 3 weeks vs untreated controls
Text: as §1

[9] = system: ABUTH Abutilon theophrasti; experiment: as above; settings: 80 g/ha, scored visually after 3 weeks vs untreated controls
Text: as §1

[10] = system: AVEFA Avena fatua; experiment: Post-emergence herbicidal action against harmful plants; settings: one-leaf stage, assessed visually after about 3 weeks vs untreated controls
Text: (§2) The abbreviations used for the harmful plants mean: • ABUTH Abutilon theophrasti ALOMY Alopecurus myosuroides • AVEFA Avena fatua AMARE Amaranthus retroflexus • CYPES Cyperus esculentus DIGSA Digitaria sanguinalis • ECHCG Echinochloa crus-galli HORMU Hordeum murinum • LOLMU Lolium multiflorum LOLRI Lolium rigidum • MATIN Matricaria inodora PHBPU Pharbitis purpurea • POLCO Polygonum convolvulus SETVI Setaria viridis • STEME Stellaria media VERPE Veronica persica • VIOTR Viola tricolor 2. Post-Emergence Herbicidal Action Against Harmful Plants Seeds of monocotyledonous and dicotyledonous weed and crop plants are laid out in sandy loam soil in wood-fiber pots, covered with soil and cultivated in a greenhouse under good growth conditions. 2 to 3 weeks after sowing, the test plants are treated at the one-leaf stage. The compounds of the invention, formulated in the form of wettable powders (WP) or as emulsion concentrates (EC), are then sprayed onto the green parts of the plants in the form of an aqueous suspension or emulsion at a water application rate equivalent to 600 to 800 l/ha, with addition of 0.2% wetting agent. After the test plants have been left to stand in the greenhouse under optimal growth conditions for about 3 weeks, the action of the preparations is assessed visually in comparison to untreated controls (herbicidal action in percent (%): 100% activity=the plants have died, 0% activity=like control plants). […] The tables below illustrate, in an illustrative manner, the post-emergence herbicidal action of the compounds of the invention, the herbicidal activity being stated in percent.

[11] = system: PHBPU Pharbitis purpurea; experiment: as above; settings: 20 g/ha, one-leaf stage, assessed visually after about 3 weeks vs untreated controls
Text: as §2

[12] = system: SETVI Setaria viridis; experiment: as above; settings: one-leaf stage, assessed visually after about 3 weeks vs untreated controls
Text: as §2

[13] = system: POLCO Polygonum convolvulus; experiment: as above; settings: one-leaf stage, assessed visually after about 3 weeks vs untreated controls
Text: as §2

[14] = system: ALOMY Alopecurus myosuroides; experiment: as above; settings: one-leaf stage, assessed visually after about 3 weeks vs untreated controls
Text: as §2

[15] = system: AMARE Amaranthus retroflexus; experiment: as above; settings: one-leaf stage, assessed visually after about 3 weeks vs untreated controls
Text: as §2

[16] = system: DIGSA Digitaria sanguinalis; experiment: as above; settings: one-leaf stage, assessed visually after about 3 weeks vs untreated controls
Text: as §2

[17] = system: VERPE Veronica persica; experiment: as above; settings: one-leaf stage, assessed visually after about 3 weeks vs untreated controls
Text: as §2

[18] = system: MATIN Matricaria inodora; experiment: as above; settings: one-leaf stage, assessed visually after about 3 weeks vs untreated controls
Text: as §2

[19] = system: ABUTH Abutilon theophrasti; experiment: as above; settings: one-leaf stage, assessed visually after about 3 weeks vs untreated controls
Text: as §2

| SMILES | Pre-emergence action at 80 g/ha against ECHCG in % [1] [%] | Pre-emergence action at 20 g/ha against MATIN in % [2] [%] | Pre-emergence action at 80 g/ha against MATIN in % [2] [%] | Pre-emergence action at 80 g/ha against PHBPU in % [3] [%] | Pre-emergence action at 80 g/ha against POLCO in % [5] [%] | Pre-emergence action at 80 g/ha against ALOMY in % [6] [%] | Pre-emergence action at 20 g/ha against AMARE in % [7] [%] | Pre-emergence action at 80 g/ha against AMARE in % [7] [%] | Pre-emergence action at 20 g/ha against DIGSA in % [8] [%] | Pre-emergence action at 80 g/ha against DIGSA in % [8] [%] | Pre-emergence action at 80 g/ha against ABUTH in % [9] [%] | Post-emergence action at 20 g/ha against PHBPU in % [11] [%] | Post-emergence action at 20 g/ha against AMARE in % [15] [%] | Post-emergence action at 20 g/ha against DIGSA in % [16] [%] | further results |
| --- | --- | --- | --- | --- | --- | --- | --- | --- | --- | --- | --- | --- | --- | --- | --- |
| Cc1c(C(=O)Nc2nnnn2C)cc(Cl)c(C(F)(F)F)c1C(=O)NC1CC1 [Example 1-85] | 80 | 80 | 100 | 80 | 80 | 80 | 100 | 100 | 100 | 100 | 100 | 80 | 80 | 90 | Pre-emergence action at 80 g/ha against SETVI in % [4]: 100%; Post-emergence action at 20 g/ha against AVEFA in % [10]: 80%; Post-emergence action at 20 g/ha against SETVI in % [12]: 80%; Post-emergence action at 20 g/ha against POLCO in % [13]: 80%; Post-emergence action at 20 g/ha against ALOMY in % [14]: 80% |
| CCN(C)C(=O)c1c(C(F)(F)F)cc(F)c(C(=O)Nc2nnnn2CC)c1C [Example 2-96] | 80 | 80 | 90 | 80 | 80 | 80 | 100 | 100 | 80 | 90 | 90 | 90 | 90 | 90 | Post-emergence action at 20 g/ha against VERPE in % [17]: 80%; Post-emergence action at 20 g/ha against MATIN in % [18]: 80%; Post-emergence action at 5 g/ha against AMARE in % ([15]; 5 g/ha): 80%; Post-emergence action at 20 g/ha against ABUTH in % [19]: 80% |
